The conditions of this data set: Crystal; DTA.

Each structure is given as a SMILES string. ± gives the expanded uncertainty stated by the source.

Consider `COc1ccc2[nH]c(SCc3ncc(C)c(OC)c3C)nc2c1` [Omeprazole sulfide], for which the Normal melting temperature worked out at 119.00 ± 0.5 °C.

The values are drawn from the NIST ThermoML archive (doi:10.1016/j.fluid.2015.07.038).
